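96-well plates; 48 h exposure; 5 concentrations. Endpoints by linear interpolation between flanking doses. Not reached: highest tested concentration assigned. GI50 is the concentration that inhibits growth by half. TGI: concentration producing complete growth inhibition.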
What was measured:
Assay in all cases: DTP human tumour cell line panel, 48 h
[1] = system: HCT-15 colon
[2] = system: PC-3 prostate
[3] = system: SW-620 colon
[4] = system: RPMI-8226 leukemia
[5] = system: MOLT-4 leukemia
[6] = system: CCRF-CEM leukemia
[7] = system: MDA-MB-435
[8] = system: UO-31 renal
[9] = system: OVCAR-4 ovarian
[10] = system: K-562 leukemia
[11] = system: DU-145 prostate
[12] = system: IGROV1 ovarian
[13] = system: CAKI-1 renal
[14] = system: COLO 205 colon
[15] = system: OVCAR-8 ovarian
[16] = system: MALME-3M melanoma
[17] = system: SNB-19 CNS
[18] = system: ACHN renal
[19] = system: OVCAR-3 ovarian
[20] = system: UACC-257 melanoma
[21] = system: HL-60(TB) leukemia
[22] = system: HCC-2998 colon
[23] = system: SR leukemia
[24] = system: SK-OV-3 ovarian
[25] = system: TK-10 renal
[26] = system: RXF 393 renal
[27] = system: NCI-H522 lung
[28] = system: MCF7 breast
[29] = system: SNB-75 CNS
[30] = system: A498 renal
[31] = system: HT29 colon
[32] = system: LOX IMVI melanoma
[33] = system: SN12C renal
[34] = system: SK-MEL-5 melanoma
[35] = system: SF-539 CNS
[36] = system: KM12 colon
[37] = system: A549 NSCLC
[38] = system: SF-268 CNS
[39] = system: SK-MEL-28 melanoma
[40] = system: T-47D breast
[41] = system: OVCAR-5 ovarian
[42] = system: NCI-H460 lung
[43] = system: MDA-MB-468 breast
[44] = system: MDA-MB-231 breast
[45] = system: NCI-H226 lung
[46] = system: NCI-H23 lung
[47] = system: SF-295 CNS
[48] = system: HS 578T breast
[49] = system: M14 melanoma
[50] = system: HCT-116 colon
[51] = system: EKVX NSCLC
[52] = system: NCI/ADR-RES ovarian
[53] = system: SK-MEL-2 melanoma
[54] = system: HOP-92 NSCLC
[55] = system: UACC-62 melanoma
[56] = system: U251 CNS
[57] = system: HOP-62 NSCLC
[58] = system: 786-0 renal
[59] = system: BT-549 breast

SMILES: COc1ccc(-c2nc3ccc(-c4nnc(SCC(=O)Nc5ccc(/C(C)=N\O)cc5)o4)cc3[nH]2)cc1
- GI50 [1]: > 100 µM
- TGI [1]: > 100 µM
- GI50 [2]: 3.05 µM
- TGI [2]: 10.8 µM
- GI50 [3]: 26.1 µM
- TGI [3]: 87.6 µM
- GI50 [4]: 4 µM
- TGI [4]: > 100 µM
- GI50 [5]: 9.01 µM
- TGI [5]: > 100 µM
- GI50 [6]: 7.22 µM
- TGI [6]: > 100 µM
- GI50 [7]: 4 µM
- TGI [7]: 18.1 µM
- GI50 [8]: 33.5 µM
- TGI [8]: > 100 µM
- GI50 [9]: 20.9 µM
- TGI [9]: 91.7 µM
- GI50 [10]: 3.68 µM
- TGI [10]: > 100 µM
- GI50 [11]: 14.8 µM
- TGI [11]: 31.8 µM
- GI50 [12]: 12 µM
- TGI [12]: 24.3 µM
- GI50 [13]: 5.93 µM
- TGI [13]: 25 µM
- GI50 [14]: 26.2 µM
- TGI [14]: > 100 µM
- GI50 [15]: 7.7 µM
- TGI [15]: 44.6 µM
- GI50 [16]: 1.69 µM
- TGI [16]: 3.95 µM
- GI50 [17]: 13.1 µM
- TGI [17]: 28.3 µM
- GI50 [18]: 13 µM
- TGI [18]: 35.2 µM
- GI50 [19]: 12.7 µM
- TGI [19]: 38.1 µM
- GI50 [20]: 4.31 µM
- TGI [20]: 17.2 µM
- GI50 [21]: 19.5 µM
- TGI [21]: > 100 µM
- GI50 [22]: 50.8 µM
- TGI [22]: > 100 µM
- GI50 [23]: > 100 µM
- TGI [23]: > 100 µM
- GI50 [24]: 12.2 µM
- TGI [24]: 28.8 µM
- GI50 [25]: 19.8 µM
- TGI [25]: 37.5 µM
- GI50 [26]: 2.03 µM
- TGI [26]: 5.18 µM
- GI50 [27]: 6.37 µM
- TGI [27]: 23 µM
- GI50 [28]: 8.61 µM
- TGI [28]: 30.9 µM
- GI50 [29]: 2.8 µM
- TGI [29]: 14.9 µM
- GI50 [30]: 22.7 µM
- TGI [30]: 37.2 µM
- GI50 [31]: 13.8 µM
- TGI [31]: 35.6 µM
- GI50 [32]: 5.69 µM
- TGI [32]: 19.4 µM
- GI50 [33]: 11.6 µM
- TGI [33]: 28 µM
- GI50 [34]: 1.68 µM
- TGI [34]: 3.66 µM
- GI50 [35]: 2.15 µM
- TGI [35]: 6.35 µM
- GI50 [36]: 10.8 µM
- TGI [36]: > 100 µM
- GI50 [37]: 14.1 µM
- TGI [37]: 35.6 µM
- GI50 [38]: 4.38 µM
- TGI [38]: 23.1 µM
- GI50 [39]: 2.05 µM
- TGI [39]: 4.03 µM
- GI50 [40]: 10 µM
- TGI [40]: 34.8 µM
- GI50 [41]: 19.9 µM
- TGI [41]: 41 µM
- GI50 [42]: 15 µM
- TGI [42]: 53 µM
- GI50 [43]: 6.35 µM
- TGI [43]: 19.3 µM
- GI50 [44]: 3.83 µM
- TGI [44]: 13.4 µM
- GI50 [45]: 11.7 µM
- TGI [45]: 33.2 µM
- GI50 [46]: 11 µM
- TGI [46]: 33.9 µM
- GI50 [47]: 14.2 µM
- TGI [47]: 32.8 µM
- GI50 [48]: 2.75 µM
- TGI [48]: 8.15 µM
- GI50 [49]: 3.05 µM
- TGI [49]: > 100 µM
- GI50 [50]: 3.31 µM
- TGI [50]: > 100 µM
- GI50 [51]: 17.1 µM
- TGI [51]: 48.8 µM
- GI50 [52]: > 100 µM
- TGI [52]: > 100 µM
- GI50 [53]: 5.27 µM
- TGI [53]: 17.8 µM
- GI50 [54]: 4.14 µM
- TGI [54]: 19.7 µM
- GI50 [55]: 3.2 µM
- TGI [55]: 12 µM
- GI50 [56]: 4.3 µM
- TGI [56]: 20.4 µM
- GI50 [57]: 22.9 µM
- TGI [57]: > 100 µM

SMILES: COc1ccc(C(=O)/C=C/c2ccc(Cl)c(C(F)(F)F)c2)cc1S(N)(=O)=O
- GI50 [1]: 0.893 µM
- TGI [1]: 2.34 µM
- GI50 [2]: 1.75 µM
- TGI [2]: 4.52 µM
- GI50 [3]: 1.23 µM
- TGI [3]: 2.69 µM
- GI50 [5]: 2.57 µM
- TGI [5]: 8.33 µM
- GI50 [7]: 1.75 µM
- TGI [7]: 4.28 µM
- GI50 [8]: 1.4 µM
- TGI [8]: 2.74 µM
- GI50 [9]: 2.8 µM
- TGI [9]: 12.5 µM
- GI50 [10]: 1.08 µM
- TGI [10]: > 100 µM
- GI50 [11]: 4.99 µM
- TGI [11]: 17 µM
- GI50 [12]: 1.87 µM
- TGI [12]: 4.01 µM
- GI50 [13]: 1.57 µM
- TGI [13]: 4.16 µM
- GI50 [14]: 1.96 µM
- TGI [14]: 4.08 µM
- GI50 [15]: 1.74 µM
- TGI [15]: 4.51 µM
- GI50 [16]: 1.88 µM
- TGI [16]: 4.01 µM
- GI50 [17]: 1.66 µM
- TGI [17]: 3.37 µM
- GI50 [18]: 1.47 µM
- TGI [18]: 2.84 µM
- GI50 [19]: 1.42 µM
- TGI [19]: 2.87 µM
- GI50 [20]: 2.1 µM
- TGI [20]: 6.2 µM
- GI50 [21]: 1.72 µM
- TGI [21]: 5.49 µM
- GI50 [22]: 1.59 µM
- TGI [22]: 2.93 µM
- GI50 [24]: 7.9 µM
- TGI [24]: 23.8 µM
- GI50 [25]: 2.59 µM
- TGI [25]: 7.23 µM
- GI50 [26]: 1.64 µM
- TGI [26]: 3.1 µM
- GI50 [27]: 1.54 µM
- TGI [27]: 3.15 µM
- GI50 [28]: 0.333 µM
- TGI [28]: 1.39 µM
- GI50 [29]: 1.62 µM
- TGI [29]: 9.69 µM
- GI50 [30]: 12.9 µM
- TGI [30]: 25.6 µM
- GI50 [58]: 0.419 µM
- TGI [58]: 1.8 µM
- GI50 [31]: 1.52 µM
- TGI [31]: 3.06 µM
- GI50 [32]: 0.313 µM
- TGI [32]: 1.1 µM
- GI50 [33]: 1.45 µM
- TGI [33]: 2.94 µM
- GI50 [34]: 3.63 µM
- TGI [34]: 13.3 µM
- GI50 [35]: 1.61 µM
- TGI [35]: 3 µM
- GI50 [36]: 1.76 µM
- TGI [36]: 5.65 µM
- GI50 [37]: 2.34 µM
- TGI [37]: 10.3 µM
- GI50 [38]: 10 µM
- TGI [38]: 32.1 µM
- GI50 [39]: 1.74 µM
- TGI [39]: 3.19 µM
- GI50 [40]: 2.37 µM
- TGI [40]: 9.36 µM
- GI50 [41]: 3.27 µM
- TGI [41]: 9.35 µM
- GI50 [42]: 2.4 µM
- TGI [42]: 6.62 µM
- GI50 [43]: 1.34 µM
- TGI [43]: 2.69 µM
- GI50 [44]: 1.69 µM
- TGI [44]: 3.37 µM
- GI50 [45]: 2.22 µM
- TGI [45]: 5.6 µM
- GI50 [46]: 1.62 µM
- TGI [46]: 3.04 µM
- GI50 [47]: 1.64 µM
- TGI [47]: 3.32 µM
- GI50 [48]: 6.57 µM
- TGI [48]: 38.8 µM
- GI50 [51]: 2.15 µM
- TGI [51]: 5.75 µM
- GI50 [52]: 1.05 µM
- TGI [52]: 3.33 µM
- GI50 [53]: 6.78 µM
- TGI [53]: 20.4 µM
- GI50 [54]: 2.01 µM
- TGI [54]: 5.81 µM
- GI50 [55]: 1.52 µM
- TGI [55]: 3.41 µM
- GI50 [56]: 1.42 µM
- TGI [56]: 3.08 µM
- GI50 [57]: 1.93 µM
- TGI [57]: 4.13 µM
- GI50 [59]: 1.71 µM
- TGI [59]: 3.18 µM

Reference: PubChem BioAssay (NCI)
